Experimental data taken from ChEMBL document CHEMBL1154579, “Novel cytotoxic diterpenes from Casearia arborea” (J Nat Prod, 2000).

Key:
SF-539 = assay: Cytotoxicity against human SF539 cells after 2 days; assay type: functional, cell-based; conditions: SF-539, 48 h
LOX IMVI = assay: Cytotoxicity against human LOX IMVI cells after 2 days; assay type: functional, cell-based; conditions: 48 h

Row | Structure (SMILES) | IC50 (SF-539) [nM] | IC50 (LOX IMVI) [nM]
1 | C=C/C(C)=C/C[C@]1(C)[C@H](C)CC[C@@]23C(=C[C@H](OC(=O)c4ccc(O)cc4)C[C@@H]12)[C@@H](OC(C)=O)O[C@H]3OC(C)=O [CASEARBORIN A] | 290 | 290
2 | C=C/C(C)=C/C[C@]1(C)[C@H](C)CC[C@@]23C(=C[C@H](OC(=O)c4ccc(O)c(OC)c4)C[C@@H]12)[C@@H](OC(C)=O)O[C@H]3OC(C)=O [CASEARBORIN B] | 290 | 290
3 | C=C/C(C)=C/C[C@]1(C)[C@H](C)C[C@H](OC(=O)c2ccc(O)cc2)[C@@]23C(=C[C@H](O)C[C@@H]12)[C@@H](OC(C)=O)O[C@H]3OC(C)=O [CASEARBORIN C] | 290 | 290
4 | C=C/C(C)=C/C[C@]1(C)[C@H](C)C[C@H](O)[C@@]23C(=C[C@H](OC(=O)c4ccc(O)cc4)C[C@@H]12)[C@@H](OC(C)=O)O[C@H]3OC(C)=O [CASEARBORIN D] | 290 | 290
5 | C=C/C(C)=C/C[C@]1(C)[C@H](C)C[C@H](OC(=O)c2ccc(O)cc2)[C@@]23C(=C[C@H](OC(C)=O)C[C@@H]12)[C@@H](OC(C)=O)O[C@H]3OC(C)=O [CASEARBORIN E] | 290 | 290
